{
  "source": "patent US12577235B2",
  "about": "“Crystalline form of CXCR2 antagonist and application thereof” (Shenzhen Optimum Biological Technology Co., Ltd, priority 2019, dated 2026)",
  "key": {"[1]": {"assay": "Stability assay of solid crystalline form A at high temperature, high humidity, high temperature and high humidity, and illumination", "assay_type": "physicochemical", "conditions": "for Stability and druggability (conclusion in words): solid state stress conditions", "protocol": "The samples were placed in conditions of high temperature (60° C.), high humidity (92.5% humidity, 25° C.), high temperature and high humidity (60° C./75% humidity), and under illumination (including in the dark as control) for stability assay. For samples in a 60° C./75% thermostatic incubator and a 92.5% RH desiccator, the vials were sealed using films. On the films 5 small holes were provided to ensure that the sample was in sufficient contact with atmospheric air. For samples at 60° C., under illumination and in the dark, the vials were tightly capped (for the sample in the dark the vial was wrapped with tin foil). The samples were tested on day 10 for high humidity (92.5% humidity) condition, on days 5 and 10 for high temperature (60° C.) condition, on days 10 and 30 for high temperature and high humidity (60° C./75% humidity) condition, and on day 10 for illumination condition."}, "[2]": {"test_system": "rat COPD model induced by smoking combined with lipopolysaccharide", "assay": "Anti-inflammation effect in rat COPD model induced by smoking combined with lipopolysaccharide", "assay_type": "in vivo, SD rats", "protocol": "Modeling: the animal model was prepared by exposing the rats to cigarette smoke once daily for 14 days. The rats were smoked for 90 min per day in 2 portions with a break of 10 min. 18 Marlboro cigarettes (with a tar content of 11 mg) were given each time. LPS was administered dropwise via airway at 200 μg/rat once weekly. The administration dropwise was performed on days 6 and 13 of smoke exposure (on the day of LPS administration dropwise, only LPS was administered dropwise for modeling without smoke exposure). • 2. Administration: an aqueous solution of 1% DMSO/20% PEG400/79% (HP-b-CD) was used as the vehicle, and the drugs were administrated intragastrically everyday at a volume of 5 mL/kg for 2 weeks. • 3. Endpoint: On day 15, pulmonary function test, sample collection, inflammatory cell count in bronchoalveolar lavage fluid, pathological analysis, and lung tissue MPO and MMP9 assay were carried out. Procedures of Pulmonary Function Test:\nAfter the last smoking and modeling were finished, pulmonary function was tested for each group of animals on the second day, and pulmonary resistance and compliance were detected under stimulation of methacholine chloride at different doses. The animals were anesthetized by intraperitoneal injection with […] of 25% urethane. After the animals were deeply anesthetized, airway intubation was performed by separating airways, and meanwhile, jugular veins were separated. After breathing stably, the animals were put into a plethysmograph. Drug administration pipelines were inserted into the separated jugular veins. After the animals were in rest state for 1-2 min and the breathing curves were stable, then detection was started. Rats were administered with methacholine chloride at doses of 0, 0.0083, 0.025, 0.075, 0.225, 0.675 mg/kg by jugular vein intubation. The increase in airway resistance and decrease in pulmonary compliance were observed after each administration. After 1-2 min, the parameters returned to near the baseline of the previous concentration of methacholine chloride, and methacholine chloride of the next concentration was injected. After the detection was finished, subsequent alveolar lavage and sample collection were performed.\nAfter the pulmonary function test was finished, the rats were sacrificed by cervical dislocation. After the animals were confirmed dead, the lungs were carefully separated, a lavage syringe was inserted into the main trachea and fixed with 2-0 silk thread. The right lung was ligated. 5 mL of low-temperature normal saline was slowly injected through the lavage syringe. The normal saline was slowly extracted after confirming that the normal saline was injected into the left lung. The operation was repeated twice. By the three lavages, a total of 15 mL of normal saline was injected for lavage. The obtained BALF was injected into a 15 mL centrifuge tube and preserved in a storage box at 4° C. for subsequent BALF cells counting.\nAfter BALF was collected, the right lung which was not infused was taken off and weighted. The two upper lobes of the right lung were put into a cryopreservation tube, frozen in a freezer at −80° C. for later use. Lower lobe tissues were fixed in formalin.\n1 mL of homogenously mixed BALF was added into 1 mL of a solution of 1% glacial acetic acid in normal saline. Cells were counted using a hemocytometer. The remaining lavage fluid was centrifuged at 1500 r/min for 10 min at 4° C. to give a cell mass. The cells were resuspended in 200 μL of normal saline, uniformly coated on a glass slide and stained by Wright-Giemsa stain. Macrophages, neutrophils and lymphocytes in a total of 200 cells were counted under a microscope, and the proportions of the cells was calculated. For lavage fluid collection, animals failing the lavage fluid collection were not summarized. […]"}, "[3]": {"conditions": "high humidity (92.5% humidity, 25° C.), day 0"}, "[4]": {"conditions": "high humidity (92.5% humidity, 25° C.), day 10"}, "[5]": {"conditions": "high temperature (60° C.), day 0"}, "[6]": {"conditions": "high temperature (60° C.), day 5"}, "[7]": {"conditions": "high temperature (60° C.), day 10"}, "[8]": {"conditions": "in the dark for 10 days (control)"}, "[9]": {"conditions": "10 mg/kg vs Danirixin at 30 mg/kg"}, "[10]": {"conditions": "10 mg/kg, methacholine 0.025 mg/kg"}, "[11]": {"conditions": "30 mg/kg vs Danirixin at 30 mg/kg"}, "[12]": {"conditions": "at various doses (3, 10, 30 mpk)"}},
  "data": [
    {"smiles": "O=C(Nc1ccc(Cl)c(S(=O)(=O)[C@H]2CCCNC2)c1O)N[C@@H]1CCCc2cc(C(F)(F)F)oc21", "note": "[crystalline form A]", "values": [
      {"measurement": "Appearance", "setting": "[1]; 60° C./75% humidity, day 0", "result": "White powder"},
      {"measurement": "Crystalline form", "setting": "[1]; 60° C./75% humidity, day 0", "result": "Crystalline"},
      {"measurement": "Appearance", "setting": "[1]; 60° C./75% humidity, day 10", "result": "White powder"},
      {"measurement": "Crystalline form", "setting": "[1]; 60° C./75% humidity, day 10", "result": "Crystalline"},
      {"measurement": "Appearance", "setting": "[1]; 60° C./75% humidity, day 30", "result": "White powder"},
      {"measurement": "Crystalline form", "setting": "[1]; 60° C./75% humidity, day 30", "result": "Crystalline"},
      {"measurement": "Appearance", "setting": "[1]; [3]", "result": "White powder"},
      {"measurement": "Crystalline form", "setting": "[1]; [3]", "result": "Crystalline"},
      {"measurement": "Appearance", "setting": "[1]; [4]", "result": "White powder"},
      {"measurement": "Crystalline form", "setting": "[1]; [4]", "result": "Crystalline"},
      {"measurement": "Appearance", "setting": "[1]; [5]", "result": "White powder"},
      {"measurement": "Crystalline form", "setting": "[1]; [5]", "result": "Crystalline"},
      {"measurement": "Appearance", "setting": "[1]; [6]", "result": "White powder"},
      {"measurement": "Crystalline form", "setting": "[1]; [6]", "result": "Crystalline"},
      {"measurement": "Appearance", "setting": "[1]; [7]", "result": "White powder"},
      {"measurement": "Crystalline form", "setting": "[1]; [7]", "result": "Crystalline"},
      {"measurement": "Appearance", "setting": "[1]; [8]", "result": "White"},
      {"measurement": "Crystalline form", "setting": "[1]; [8]", "result": "Crystalline"},
      {"measurement": "Stability and druggability (conclusion in words)", "setting": "[1]; listed as crystalline form A of compound 1", "result": "good stability and druggability"},
      {"measurement": "Stability and druggability (conclusion in words)", "setting": "[1]; listed as crystalline form A of the compound 1", "result": "good stability and desirable druggability"},
      {"measurement": "Appearance", "setting": "[1]; under illumination for 10 days", "result": "White"},
      {"measurement": "Crystalline form", "setting": "[1]; under illumination for 10 days", "result": "Crystalline"},
      {"measurement": "Pulmonary function improvement and anti-inflammatory effects (summary)", "setting": "[2]; 3 mg/kg", "result": "significant pulmonary function improvement and anti-inflammatory effects"},
      {"measurement": "Pulmonary resistance, effect relative to Danirixin", "setting": "[2]; 3 mg/kg and 10 mg/kg vs Danirixin at 30 mg/kg", "result": "comparable to that of Danirixin"},
      {"measurement": "MPO content in lung tissues, effect relative to Danirixin", "setting": "[2]; 3 mg/kg vs Danirixin at 30 mg/kg", "result": "comparable effect"},
      {"measurement": "Pulmonary resistance, methacholine-induced pulmonary function test", "setting": "[2]; 3 mg/kg, methacholine 0.025 mg/kg", "result": "significant effects in improving the pulmonary resistance"},
      {"measurement": "Lung tissue pathology score, effect relative to Danirixin", "setting": "[2]; [9]", "result": "comparable of that of Danirixin"},
      {"measurement": "MMP9 content in lung tissue, effect relative to Danirixin", "setting": "[2]; [9]", "result": "comparable of that of Danirixin"},
      {"measurement": "Number of leukocytes in BALF, effect relative to Danirixin", "setting": "[2]; [9]", "result": "comparable effect"},
      {"measurement": "Number of neutrophils in BALF, effect relative to Danirixin", "setting": "[2]; [9]", "result": "comparable effect"},
      {"measurement": "Pulmonary compliance, effect relative to Danirixin", "setting": "[2]; [9]", "result": "comparable to that of Danirixin"},
      {"measurement": "Pulmonary compliance, methacholine-induced pulmonary function test", "setting": "[2]; [10]", "result": "significant effect in improving the pulmonary compliance"},
      {"measurement": "Pulmonary resistance, methacholine-induced pulmonary function test", "setting": "[2]; [10]", "result": "significant effects in improving the pulmonary resistance"},
      {"measurement": "Lung tissue pathology score, effect relative to Danirixin", "setting": "[2]; [11]", "result": "superior effect"},
      {"measurement": "MMP9 content in lung tissue, effect relative to Danirixin", "setting": "[2]; [11]", "result": "superior effect"},
      {"measurement": "Lung tissue pathology score, dose dependence", "setting": "[2]; 3, 10, 30 mpk", "result": "improved the pathology score in a dose-dependent manner"},
      {"measurement": "MMP9 content in lung tissue, dose dependence", "setting": "[2]; 3, 10, 30 mpk", "result": "reduced the MMP9 content in lung tissue in a dose-dependent manner"},
      {"measurement": "Number of neutrophils in BALF, dose dependence", "setting": "[2]; 3, 10, 30 mpk", "result": "reduced the number of neutrophils in a dose-dependent manner"},
      {"measurement": "Anti-inflammatory effect (summary)", "setting": "[2]; Danirixin 30 mpk, crystalline form A 3-30 mpk", "result": "significant anti-inflammatory effect"},
      {"measurement": "Pharmacodynamic effect compared with Danirixin", "setting": "[2]; at a lower dose than Danirixin", "result": "equivalent pharmacodynamic effect"},
      {"measurement": "Pharmacodynamic effect compared with Danirixin", "setting": "[2]; at the same dose as Danirixin", "result": "superior pharmacodynamic effect"},
      {"measurement": "MPO content in lung tissues", "setting": "[2]; [12]", "result": "significantly reduce the MPO content"},
      {"measurement": "Number of leukocytes in BALF", "setting": "[2]; [12]", "result": "significantly reduce the number of leukocytes"},
      {"measurement": "Number of neutrophils in BALF", "setting": "[2]; down to 3 mg/kg", "result": "significant effect"},
      {"measurement": "Lung tissue pathology score", "setting": "[2]; down to 10 mg/kg", "result": "significant effect"},
      {"measurement": "MMP9 content in lung tissue", "setting": "[2]; down to 10 mg/kg", "result": "significant effect"}
    ]}
  ]
}
